The results in this text go back to patent US20150031535A1, “Liquid concentrate formulation containing a pyripyropene insecticide III” (BASF SE, priority 2012, published 2015).

The nature of data set [1]: Solvate crystal growth in seeded solutions of Insecticide A in 2-heptanone/Solvent A mixtures (Example 2). The class given is physicochemical. Particulars: seeded with Solvent A solvate crystals, 22° C., one month. The protocol:
Four solutions of 2-heptanone in Solvent A were prepared by mixing 1 part by weight of 2-heptanone with 2, 4, 6 and 8 parts by weight, respectively, of solvent A. Then Insecticide A was dissolved in each of these solutions by slowly adding 4.98 parts by weight of Insecticide A to well agitated 63.92 parts by weight of the respective solution at room temperature. It typically took 1 to 3 hours for complete dissolution. After Insecticide A was fully dissolved, each of the four samples was seeded with the Solvent A solvate crystals of Insecticide A prepared in Example 1. Then the four samples were kept at 22° C. for one month and afterwards were visually inspected for solvate crystal growth.

The nature of data set [2]: Precipitation from a solution of Insecticide A in Solvent A on continued agitation at room temperature (Example 1, comparative). The class given is physicochemical. The method, then:
A solution of Insecticide A (pyripyropene derivative I) in Solvent A was prepared by slowly adding 4.98 parts by weight of Insecticide A to well agitated 63.92 parts by weight of Solvent A at room temperature. It typically took 1 to 3 hours for complete dissolution depending on the addition rate of Insecticide A and on the mode of agitation. After the agitation had been continued for additional approximately 12 hours the clear solution started to turn cloudy, indicating the precipitation of Solvent A solvate crystals of Insecticide A. Microscopy analysis confirmed that the precipitation was indeed crystalline.

As for `C[C@]1(COC(=O)C2CC2)[C@@H]2C[C@H](O)[C@@]3(C)Oc4cc(-c5cccnc5)oc(=O)c4[C@H](O)[C@@H]3[C@@]2(C)CC[C@@H]1OC(=O)C1CC1` [Insecticide A], the “solvate crystal growth (visual inspection)” value is given as “no crystal growth was observed” in data set [1] (2-heptanone to Solvent A ratio 1:2), “no crystal growth was observed” in data set [1] (2-heptanone to Solvent A ratio 1:4), “crystal growth was detected” in data set [1] (2-heptanone to Solvent A ratio 1:6) and “crystal growth was detected” in data set [1] (2-heptanone to Solvent A ratio 1:8). In data set [2] (4.98 parts Insecticide A in 63.92 parts Solvent A), the “microscopy analysis of the precipitation” value is “crystalline”. For the same molecule, the “additional agitation time after which the clear solution started to turn cloudy (precipitation of Solvent A solvate crystals)” value in data set [2] (4.98 parts by weight Insecticide A in 63.92 parts by weight Solvent A, after complete dissolution) is reported as “approximately 12 hours”.
